Experimental data from ChEMBL document CHEMBL1201862, “PubChem BioAssay data set” (2004).
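Protocol summary: plate cells (96-well), add compound at 5 concentrations, incubate 48 h, interpolate endpoints linearly. The concentration for 50% growth inhibition is given as GI50.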 Calls of active or inactive are those of the source. No stated cut-off is given here; in the data, active = GI50 up to about 1.1 µM and inactive = higher. Residues, ends and D or L forms follow the SMILES beside them. *: point of attachment. Boc = CC(C)(C)OC(=O)*

Assays:
Assay in all cases: inhibition of tumour cell growth, NCI panel, 48 h
KM12 = test system: KM12
UACC-62 = test system: UACC-62
LOX IMVI = test system: LOX IMVI
K562 = test system: K562
NCI-H522 = test system: NCI-H522
Malme-3M = test system: Malme-3M
MDA-MB-231 = test system: MDA-MB-231
MDA-N = test system: MDA-N
MOLT-4 = test system: MOLT-4
CCRF-CEM = test system: CCRF-CEM
RPMI-8226 = test system: RPMI-8226
PC-3 = test system: PC-3
HCT-15 = test system: HCT-15
COLO 205 = test system: COLO 205
OVCAR-4 = test system: OVCAR-4
EKVX = test system: EKVX
TK-10 = test system: TK-10
SNB-19 = test system: SNB-19
SK-MEL-28 = test system: SK-MEL-28

Compound | GI50 (KM12) | GI50 (UACC-62) | GI50 (LOX IMVI) | GI50 (K562) | GI50 (NCI-H522) | GI50 (Malme-3M) | GI50 (MDA-MB-231) | GI50 (MDA-N) | GI50 (MOLT-4) | GI50 (CCRF-CEM) | GI50 (RPMI-8226) | GI50 (PC-3) | GI50 (HCT-15) [µM] | GI50 (COLO 205) | GI50 (OVCAR-4) | GI50 (EKVX) | GI50 (TK-10) | GI50 (SNB-19) | GI50 (SK-MEL-28)
S=c1[nH]c2c(Cl)c(Cl)c(Cl)c(Cl)c2[nH]1 | 15.5 µM (inactive) | 15.2 µM (inactive) | 8.69 µM (inactive) | 7.23 µM (inactive) | 1.2 µM (inactive) | 14.9 µM (inactive) | 17.8 µM (inactive) | 17.3 µM (inactive) | 4.8 µM (inactive) | 1.16 µM (inactive) | 3.52 µM (inactive) | 22.2 µM (inactive) | 22 | 17.2 µM (inactive) | 5.94 µM (inactive) | 11.8 µM (inactive) | 22 µM (inactive) | 27.9 µM (inactive) | 
NNC(=S)N/N=C(/C(=O)Nc1ccc(Cl)c(Cl)c1)C(C1OC(=O)c2ccccc21)[N+](=O)[O-] (configuration not stated) | > 100 µM (inactive) | > 100 µM (inactive) | > 100 µM (inactive) | > 100 µM (inactive) | > 100 µM (inactive) | > 100 µM (inactive) | > 100 µM (inactive) | > 100 µM (inactive) | > 100 µM (inactive) | 52.7 µM (inactive) | > 100 µM (inactive) | > 100 µM (inactive) | > 100 |  | > 100 µM (inactive) | > 100 µM (inactive) | > 100 µM (inactive) |  | > 100 µM (inactive)
Cn1cc2c3ccccc3nc-2c2ccccc21 [ISOCRYPTOLEPINE] | 2.08 µM (inactive) | 1.6 µM (inactive) | 1.77 µM (inactive) | 1.94 µM (inactive) | 1.41 µM (inactive) | 2.28 µM (inactive) | 2.35 µM (inactive) | 2.04 µM (inactive) | 0.421 µM (active) | 1.45 µM (inactive) | 1.53 µM (inactive) | 2.52 µM (inactive) | 1.97 | 1.46 µM (inactive) | 1.92 µM (inactive) |  | 3.93 µM (inactive) | 2.96 µM (inactive) | 2.38 µM (inactive)
COC(=O)[C@@H](COC(=O)/C=C/c1ccc(OC(C)=O)c(OC(C)=O)c1)NC(=O)/C=C/c1ccc(OC(C)=O)c(OC(C)=O)c1 | 25.1 µM (inactive) | 19.6 µM (inactive) | 11.3 µM (inactive) | > 100 µM (inactive) | 13.2 µM (inactive) | 6.52 µM (inactive) | 22.6 µM (inactive) | 18.3 µM (inactive) | 38.5 µM (inactive) | 9.98 µM (inactive) | 38.2 µM (inactive) | 23.1 µM (inactive) | 19.7 | 15.7 µM (inactive) | 16.4 µM (inactive) | 16.3 µM (inactive) |  | 44.5 µM (inactive) | 70.8 µM (inactive)
CN(C)CCCNC(=O)CNC(=O)c1cc(NC(=O)c2cc(NC(=O)c3cc(NC(=O)CCNC(=O)c4cc(NC(=O)c5cc(NC(=O)c6nccn6C)cn5C)cn4C)cn3C)cn2C)cn1C | 64.6 µM (inactive) |  | > 100 µM (inactive) | 59.4 µM (inactive) | > 100 µM (inactive) | > 100 µM (inactive) | > 100 µM (inactive) | > 100 µM (inactive) | 20.8 µM (inactive) | 24.5 µM (inactive) | > 100 µM (inactive) | > 100 µM (inactive) | > 100 | > 100 µM (inactive) | > 100 µM (inactive) | > 100 µM (inactive) | > 100 µM (inactive) | > 100 µM (inactive) | > 100 µM (inactive)
Cc1cs/c(=N\C(P(=O)(O)O)P(=O)(O)O)n1C | > 100 µM (inactive) | > 100 µM (inactive) | > 100 µM (inactive) | > 100 µM (inactive) | > 100 µM (inactive) | > 100 µM (inactive) | > 100 µM (inactive) | > 100 µM (inactive) | > 100 µM (inactive) | > 100 µM (inactive) | > 100 µM (inactive) | > 100 µM (inactive) | > 100 | > 100 µM (inactive) |  | > 100 µM (inactive) | > 100 µM (inactive) | > 100 µM (inactive) | > 100 µM (inactive)
[N-]=[N+]=Nc1cc(=O)[nH]nc1-c1ccccc1 | > 100 µM (inactive) | > 100 µM (inactive) | > 100 µM (inactive) | > 100 µM (inactive) | > 100 µM (inactive) | > 100 µM (inactive) | > 100 µM (inactive) | > 100 µM (inactive) | > 100 µM (inactive) | > 100 µM (inactive) | > 100 µM (inactive) | > 100 µM (inactive) | > 100 | > 100 µM (inactive) | > 100 µM (inactive) | > 100 µM (inactive) | > 100 µM (inactive) |  | > 100 µM (inactive)
CO[C@@H]1C[C@H](OC(N)=O)[C@@H]2C=C[C@@H]3/C=C(C)/C=C/[C@@H](C)[C@H]([C@H](C)[C@H](O)[C@@H](C)NC(C)=O)OC(=O)/C=C/C=C(C)\C=C\[C@]3(C)[C@@H]2C1 | < 0.01 µM (active) | < 0.01 µM (active) | < 0.01 µM (active) | 0.0101 µM (active) | < 0.01 µM (active) | < 0.01 µM (active) | < 0.0316 µM (active) | < 0.01 µM (active) | 0.332 µM (active) | 0.322 µM (active) | < 0.01 µM (active) | < 0.01 µM (active) | < 0.01 | < 0.01 µM (active) | < 0.01 µM (active) | 1.24 µM (inactive) |  | 1.5 µM (inactive) | < 0.01 µM (active)
O=C(O)CCC(C(=O)O)N1C(=O)c2ccccc2C1=O (configuration not stated) | > 100 µM (inactive) | > 100 µM (inactive) | > 100 µM (inactive) | > 100 µM (inactive) | > 100 µM (inactive) | > 100 µM (inactive) | > 100 µM (inactive) | > 100 µM (inactive) |  | > 100 µM (inactive) | > 100 µM (inactive) | > 100 µM (inactive) | > 100 | > 100 µM (inactive) | > 100 µM (inactive) | > 100 µM (inactive) | > 100 µM (inactive) | > 100 µM (inactive) | > 100 µM (inactive)
N=C/N=C/C(=S)O[C@@H]1C(=O)N2CCC[C@@]23CCCC[C@@H]13 | > 12.5 µM (inactive) | > 12.5 µM (inactive) | > 12.5 µM (inactive) | > 12.5 µM (inactive) | > 12.5 µM (inactive) | > 12.5 µM (inactive) | > 12.5 µM (inactive) | > 12.5 µM (inactive) |  | > 12.5 µM (inactive) | > 12.5 µM (inactive) | > 12.5 µM (inactive) | > 12.5 | > 12.5 µM (inactive) | > 12.5 µM (inactive) | > 12.5 µM (inactive) | > 12.5 µM (inactive) | > 12.5 µM (inactive) | > 12.5 µM (inactive)
Cc1nnc([C@@]2(C)CC[C@H]3[C@@H](CCC4=CC(=O)CC[C@@]43C)[C@@H]2CC#N)o1 | > 100 µM (inactive) | > 100 µM (inactive) | > 100 µM (inactive) | > 100 µM (inactive) | > 100 µM (inactive) | > 100 µM (inactive) | > 100 µM (inactive) | > 100 µM (inactive) | > 100 µM (inactive) | > 100 µM (inactive) | > 100 µM (inactive) | > 100 µM (inactive) | > 100 | > 100 µM (inactive) | > 100 µM (inactive) | > 100 µM (inactive) | > 100 µM (inactive) | > 100 µM (inactive) | 
CC1(C)N=C(N)N=C(N)N1c1cccc(OCCOc2ccc([N+](=O)[O-])cc2)c1 | 11.5 µM (inactive) |  | 8.97 µM (inactive) | 41.9 µM (inactive) | 3.79 µM (inactive) | 20.6 µM (inactive) | > 100 µM (inactive) | 5.26 µM (inactive) | > 100 µM (inactive) | 7.76 µM (inactive) | 16.5 µM (inactive) | 0.822 µM (active) | > 100 | 37.4 µM (inactive) | 63.5 µM (inactive) | > 100 µM (inactive) | > 100 µM (inactive) | 37.8 µM (inactive) | 53.3 µM (inactive)
Cc1nc(Nc2nc3ccccc3[nH]2)nc(Cl)c1CCCl | > 100 µM (inactive) | > 100 µM (inactive) |  | > 100 µM (inactive) | > 100 µM (inactive) | > 100 µM (inactive) | > 100 µM (inactive) | > 100 µM (inactive) | > 100 µM (inactive) | > 100 µM (inactive) | > 100 µM (inactive) | > 100 µM (inactive) | > 100 | > 100 µM (inactive) | > 100 µM (inactive) | > 100 µM (inactive) | > 100 µM (inactive) | > 100 µM (inactive) | > 100 µM (inactive)
CC(C)(C)OC(=O)NC(Cc1ccc(O)cc1)C(=O)NC(CCCCN)C(=O)O (stereo not drawn) (Boc-Tyr-Lys-OH; configuration not given here) |  | 16.5 µM (inactive) | 15 µM (inactive) | 35.8 µM (inactive) | 6.41 µM (inactive) | 28.1 µM (inactive) | 21.8 µM (inactive) | 32.6 µM (inactive) | 32.8 µM (inactive) | 33.4 µM (inactive) | 32.9 µM (inactive) | 44.9 µM (inactive) | > 10 |  | 17.5 µM (inactive) |  | 37.9 µM (inactive) | 22 µM (inactive) | 23.8 µM (inactive)
C=C1C[C@@H](O)[C@@H](Br)C(C)(C)[C@@]12C=CC(=O)CC2 | 1.52 µM (inactive) | > 100 µM (inactive) | > 100 µM (inactive) | > 100 µM (inactive) | > 100 µM (inactive) | > 100 µM (inactive) | > 100 µM (inactive) | > 100 µM (inactive) | > 100 µM (inactive) | > 100 µM (inactive) | > 100 µM (inactive) | 1.5 µM (inactive) | > 100 | 1.77 µM (inactive) | > 100 µM (inactive) |  | 12.6 µM (inactive) | > 100 µM (inactive) | > 100 µM (inactive)
